Data: patent publication US11795460B2, “Compositions and methods for TTR gene editing and treating ATTR amyloidosis” (Intellia Therapeutics, Inc., priority 2017, dated 2023)

Columns and labels:
TTR [1] = assay: TTR editing in HEK293_Cas9 cells transfected with dgRNAs (Table 4); format: cell-based, human; details: HEK293_Cas9 cells (constitutively express Spy Cas9) transfected with dgRNAs
Procedure, shortened: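 Spy Cas9-expressing HEK293 cells were transfected by lipofection with crRNA (25 nM) plus trRNA (25 nM) and harvested at 24, 48 or 72 h. The target site was PCR-amplified and sequenced on MiSeq. Percent editing is reads with indels or substitutions over total reads.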

TTR [2] = assay: TTR editing in HUH7 cells transfected with Spy Cas9 mRNA and dgRNAs (Table 5); format: cell-based, human; details: HUH7 cells co-transfected with Spy Cas9 mRNA (SEQ ID NO:2) and dgRNAs
Procedure, shortened: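 HUH7 cells were transfected sequentially with Spy Cas9 mRNA (100 ng) then crRNA and tracer RNA (25 nM each) by lipofection. Genomic DNA was collected 24, 48 or 72 h later. Target site was PCR-amplified and NGS-sequenced, and percent editing was taken as reads with indels or substitutions over total reads.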

TTR [3] = assay: TTR editing in HepG2 cells transfected with Spy Cas9 mRNA and dgRNAs (Table 6); format: cell-based, human; details: HepG2 cells co-transfected with Spy Cas9 mRNA (SEQ ID NO:2) and dgRNAs
Procedure, shortened: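 HepG2 cells were transfected sequentially by lipofection with Spy Cas9 mRNA (100 ng), then crRNA plus tracer RNA (25 nM each), and harvested at 24, 48 or 72 h. Editing was measured by amplicon NGS at the TTR target site as the fraction of reads with indels or substitutions.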

TTR [4] = assay: TTR editing in primary human hepatocytes transfected with Spy Cas9 mRNA and dgRNAs (Table 9); format: cell-based; details: dgRNA co-transfected with Spy Cas9 mRNA (SEQ ID NO:2)
Procedure, shortened: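 PHH sequentially lipofected with Spy Cas9 mRNA (100 ng), then crRNA plus tracrRNA (25 nM each) dual-guide lipoplex. Cells harvested 24, 48 or 72 h post-transfection; TTR target amplicons sequenced on Illumina MiSeq, editing given as percent reads with indels or substitutions over total reads.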

Sequence	Avg % Deletion (TTR [1]) [%]	Avg % Edit (TTR [1]) [%]	Avg % Insert (TTR [1]) [%]	Avg % Deletion (TTR [2]) [%]	Avg % Edit (TTR [2]) [%]	Avg % Insert (TTR [2]) [%]	Avg % Deletion (TTR [3]) [%]	Avg % Edit (TTR [3]) [%]	Avg % Insert (TTR [3]) [%]	Avg % Deletion (TTR [4]) [%]	Avg % Edit (TTR [4]) [%]	Avg % Insert (TTR [4]) [%]
AGUCCCUCAUUCCUUGGGAU (tested as dual guide RNA, chemistry not given here) [CR003392]	20.82	21.67	0.85	26.98	28.37	1.93	0.33	14.64	14.32	0.07	2.43	2.37
AGUGAGUCUGGAGAGCUGCA (tested as dual guide RNA, chemistry not given here) [CR003359]	19.40	37.75	18.35	45.97	66.75	21.73	15.65	64.44	48.79	7.33	32.93	25.67
AUACCAGUCCAGCAAGGCAG (tested as dual guide RNA, chemistry not given here) [CR003338]	47.66	52.42	4.76	67.06	75.64	10.22	2.60	68.00	65.40	2.73	36.30	33.73
AUAGGAGUAGGGGCUCAGCA (tested as dual guide RNA, chemistry not given here) [CR003383]	15.35	40.47	25.12	41.19	42.89	2.14	0.16	6.35	6.19	13.70	15.70	2.07
AUGCAGCUCUCCAGACUCAC (tested as dual guide RNA, chemistry not given here) [CR003358]	4.14	5.44	1.29	26.60	36.50	10.53	7.27	35.93	28.66	1.17	3.90	2.73
AUUGGUGACGACAGCCGUGG (tested as dual guide RNA, chemistry not given here) [CR003389]	23.87	34.18	10.30	50.90	62.32	13.19	4.57	31.84	27.27	2.83	44.27	41.47
CAGAGGACACUUGGAUUCAC (tested as dual guide RNA, chemistry not given here) [CR003343]	19.53	24.36	4.82	66.97	76.13	9.58	5.36	45.41	40.05	2.60	55.03	52.40
CAUUGAUGGCAGGACUGCCU (tested as dual guide RNA, chemistry not given here) [CR003347]	20.50	21.45	0.95	30.79	32.16	1.64	1.49	22.57	21.08	0.17	41.47	41.33
CCAGUCCAGCAAGGCAGAGG (tested as dual guide RNA, chemistry not given here) [CR003337]	37.48	42.72	5.24	48.95	55.72	8.34	2.65	61.93	59.28	1.23	19.30	18.10
CCCAGAGGCAAAUGGCUCCC (tested as dual guide RNA, chemistry not given here) [CR003355]	23.61	30.60	6.99	30.31	38.83	9.40	3.44	15.80	12.36	1.63	12.07	10.47
CCGUGGUGGAAUAGGAGUAG (tested as dual guide RNA, chemistry not given here) [CR003386]	30.18	33.12	2.94	69.34	69.40	0.53	0.56	2.71	2.15	0.13	8.27	8.20
CCUCCUCUGCCUUGCUGGAC (tested as dual guide RNA, chemistry not given here) [CR003336]	25.78	29.09	3.31	26.56	30.05	4.14	0.83	31.31	30.48	0.80	16.93	16.20
CCUCUGCAUGCUCAUGGAAU (tested as dual guide RNA, chemistry not given here) [CR003370]	29.73	34.22	4.49	35.55	39.16	4.83	3.62	28.51	24.88	0.50	2.83	2.33
CUCUGCAUGCUCAUGGAAUG (tested as dual guide RNA, chemistry not given here) [CR003369]	24.04	33.10	9.06	17.38	24.19	7.12	5.51	22.62	17.11	0.70	1.60	0.90
CUGAGGAGGAAUUUGUAGAA (tested as dual guide RNA, chemistry not given here) [CR003364]	16.48	35.65	19.17	23.03	47.13	24.68	20.85	51.88	31.03	8.93	15.63	6.73
CUGCUCCUCCUCUGCCUUGC (tested as dual guide RNA, chemistry not given here) [CR003335]	21.87	26.59	4.73	27.57	31.95	4.62	4.23	37.19	32.96	3.40	36.43	33.03
CUGGUAUUUGUGUCUGAGGC (tested as dual guide RNA, chemistry not given here) [CR003341]	13.31	20.04	6.73	13.20	20.58	7.78	5.66	15.60	9.94	9.07	15.83	6.80
